Results: patent US20190153024A1, “NOVEL SALTS AND POLYMORPHS OF SCY-078” (priority 2015, published 2019)

How the values were obtained:
[1] = Kinetic solubility of trifluoroacetate Types A and B and HCl Type I (alternative procedure: SGF, FaSSIF and FeSSIF alternative media, acetate pH 5.5, phosphate pH 6.0 alternative media); details: for Form change: residual solid by XRPD
[2] = Physical and chemical stability of trifluoroacetate Types A and B and HCl Type I for 1, 2, 4 and 8 weeks; assay type: physicochemical
[3] = Solid form stability on storage under ambient conditions; assay type: physicochemical; details: 2 days
Description: SCY-078 Citrate Type E: SCY-078 citrate Type E was obtained by drying a metastable solvate SCY-078 citrate Type R from MeOH/IPAc.
SCY-078 Citrate Type M: SCY-078 citrate Type M was obtained by storing SCY-078 citrate Type E in ambient conditions for 2 days. […] (onset temperatures) (FIG. 58). […] (FIG. 58).
SCY-078 Trifluoroacetate Type A is highly crystalline as shown in the XRPD (FIG. 85). […] The molar ratio of trifluoroacetate Type A (acid: freebase) was determined to be 1:1 via HPLC-IC confirmation.

[4] = Form change of trifluoroacetate on storage at varying relative humidity; assay type: physicochemical; details: storage for 24 hours
Description: To investigate transition relationship of trifluoroacetate Type A and Type B, both samples were stored in chambers with varying relative humidity to monitor any form change. […] Varying temperature (VT)-XRPD of trifluoroacetate Type A was performed.

[5] = 25° C./60% RH (uncapped), 1 week
[6] = 25° C./60% RH (uncapped), 2 weeks
[7] = 25° C./60% RH (uncapped), 4 weeks
[8] = 25° C./60% RH (uncapped), 8 weeks
[9] = 40° C./75% RH (uncapped), 1 week
[10] = 40° C./75% RH (uncapped), 2 weeks
[11] = 40° C./75% RH (uncapped), 4 weeks
[12] = 40° C./75% RH (uncapped), 8 weeks

CC(C)[C@@H](C)[C@@]1(C)CC[C@]2(C)[C@H]3CC[C@@H]4[C@@]5(COC[C@]4(C)[C@@H](OC[C@](C)(N)C(C)(C)C)[C@H](n4ncnc4-c4ccncc4)C5)C3=CC[C@@]2(C)[C@@H]1C(=O)O.O=C(O)C(F)(F)F [SCY-078 Trifluoroacetate Type A]
form change of residual solid in FaSSIF alternative media ([1]; FaSSIF alternative media, ambient temperature, listed as trifluoroacetate Type A): no form change was observed
form change of residual solid in FeSSIF alternative media ([1]; FeSSIF alternative media, ambient temperature, listed as Trifluoroacetate Type A): converted to Type B
form change of residual solid in SGF ([1]; SGF, ambient temperature, listed as trifluoroacetate Type A): no form change was observed
solubility in acetate buffer (comparison) ([1]; acetate buffer pH 5.5, ambient temperature, 4 hr and 24 hrs): higher solubility
form change of residual solid in acetate buffer ([1]; acetate buffer pH 5.5, ambient temperature, listed as Trifluoroacetate Type A): no form change was observed
solubility trend in FeSSIF alternative media ([1]; after an hour): decreasing solubility
solubility in phosphate (pH 6.0) alternative media (comparison) ([1]; phosphate (pH 6.0) alternative media, ambient temperature, 4 hr and 24 hrs): lower solubility
form change of residual solid in phosphate (pH 6.0) alternative media ([1]; phosphate (pH 6.0) alternative media, ambient temperature, listed as Trifluoroacetate Type A): firstly converted to Type B at 4 hrs and back to Type A at 24 hrs
physical and chemical stability ([2]; 25° C./60% RH, 40° C./75% RH and 60° C., 8 weeks, listed as trifluoroacetate Type A): physically and chemically stable
solid form stability at ambient conditions [3]: converted to Type B

CC(C)[C@@H](C)[C@@]1(C)CC[C@]2(C)[C@H]3CC[C@@H]4[C@@]5(COC[C@]4(C)[C@@H](OC[C@](C)(N)C(C)(C)C)[C@H](n4ncnc4-c4ccncc4)C5)C3=CC[C@@]2(C)[C@@H]1C(=O)O.O=C(O)CC(O)(CC(=O)O)C(=O)O [SCY-078 citrate Type E]
solid form stability at ambient conditions [3]: not stable

CC(C)[C@@H](C)[C@@]1(C)CC[C@]2(C)[C@H]3CC[C@@H]4[C@@]5(COC[C@]4(C)[C@@H](OC[C@](C)(N)C(C)(C)C)[C@H](n4ncnc4-c4ccncc4)C5)C3=CC[C@@]2(C)[C@@H]1C(=O)O.O=C(O)C(F)(F)F [TFA Type B]
Form by XRPD after storage ([4]; Relativity Humidity 0%): Type B
Form by XRPD after storage ([4]; Relativity Humidity 22%): Type B
Form by XRPD after storage ([4]; Relativity Humidity 97%): Type A
Form change ([1]; FeSSIF alternative media, 1 hr): No
Form change ([1]; FeSSIF alternative media, 4 hrs): No
Form change ([1]; FeSSIF alternative media, 24 hrs): No
Form change ([1]; phosphate (pH 6.0) alternative media, 4 hrs): No
HPLC purity [2, 5]: 99.9%
Solid form [2, 5]: Type A
HPLC purity [2, 6]: 99.9%
Solid form [2, 6]: Type A
HPLC purity [2, 7]: 99.9%
Solid form [2, 7]: Type A
HPLC purity [2, 8]: 99.9%
Solid form [2, 8]: Type A
HPLC purity [2, 9]: 99.9%
Solid form [2, 9]: Type A
HPLC purity [2, 10]: 99.9%
Solid form [2, 10]: Type A
HPLC purity [2, 11]: 99.9%
Solid form [2, 11]: Type A
HPLC purity [2, 12]: 99.9%
Solid form [2, 12]: Type A
HPLC purity ([2]; 60° C. (capped), 1 week): 99.9%
Solid form ([2]; 60° C. (capped), 1 week): Type A
HPLC purity ([2]; 60° C. (capped), 2 weeks): 99.9%
Solid form ([2]; 60° C. (capped), 2 weeks): Type A
HPLC purity ([2]; 60° C. (capped), 4 weeks): 99.9%
Solid form ([2]; 60° C. (capped), 4 weeks): Type A
HPLC purity ([2]; 60° C. (capped), 8 weeks): 99.9%
Solid form ([2]; 60° C. (capped), 8 weeks): Type A
Initial HPLC purity ([2]; Initial): 99.9%
